Measurements: BindingDB's records for doi:10.7270/Q2BR8QM3 (Nmmlsc, 2008)
Structures can show the parent of a compound that is named as a salt.

Molecular target: T1, Bcl-2-like protein 2 (Homo sapiens, UniProt Q92843)
T1 sequence (Q92843 whole entry): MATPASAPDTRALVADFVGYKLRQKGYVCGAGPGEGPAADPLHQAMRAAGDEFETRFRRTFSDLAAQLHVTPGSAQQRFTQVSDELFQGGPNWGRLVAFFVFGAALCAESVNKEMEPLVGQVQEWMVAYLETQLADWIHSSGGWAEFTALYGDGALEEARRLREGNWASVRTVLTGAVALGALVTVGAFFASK
Assay: Bcl-W/Bim binding regulators – biochemical, multiplexed, bead-based flow cytometry, fluorescence, dose response (AID 1330)

[1] = inactive by the depositor's call

SMILES	EC50 [1] [µM]	EC50 [µM]
O=C(Nc1ccccc1)c1ccc2nc(-c3ccco3)c(-c3ccco3)nc2c1 [2,3-di-2-furyl-N-phenyl-6-quinoxalinecarboxamide]	18.2	
CCOc1cccc(CNc2ccc(O)cc2)c1OCc1ccc(Cl)cc1 [4-[[2-[(4-chlorophenyl)methoxy]-3-ethoxyphenyl]methylamino]phenol]	10.2	
CCN(CC)c1ccc(NC2=C(Cl)C(=O)c3ccccc3C2=O)cc1 [2-chloro-3-{[4-(diethylamino)phenyl]amino}naphthoquinone]	0.17	
C#CCn1cc(C=C2C(=O)c3ccccc3C2=O)c2ccccc21 [SMR000196125]		9.02
COc1cc(OC)c([N+](=O)[O-])cc1[CH+][N-]NC(=O)c1ccncc1 [SMR000306621]	25.7	
CC(C)(C)NC(=O)COc1ccc(CNc2ccc3[nH]c(O)nc3c2)cc1 [N-tert-butyl-2-[4-[[(2-oxidanylidene-1,3-dihydrobenzimidazol-5-yl)amino]methyl]phenoxy]ethanamide]	6.29	
O=C(CSc1ccc2nnc(-c3ccncc3)n2n1)Nc1nccs1 [SMR000320332]	11.1	
Cc1ccc(/C=C/C2=Cc3c(sc(NC(=O)CSc4nnc(N)[nH]4)c3C#N)C(C)(C)C2)o1 [2-[(5-azanyl-1H-1,2,4-triazol-3-yl)sulfanyl]-N-[3-cyano-7,7-dimethyl-5-[(E)-2-(5-methylfuran-2-yl)ethenyl]-6H-1-benzothiophen-2-yl]ethanamide]	6.38	
CCOC(=O)c1nc(Nc2ccc(C(=O)OC)cc2)c2ccccc2n1 [ethyl 4-(4-methoxycarbonylanilino)quinazoline-2-carboxylate]	16.7	
Cc1nc2ncccn2c1-c1csc(Nc2ccc(O)cc2)n1		0.33
COc1ccc2c3c(cccc13)N(C)N=C2C [MLS000554700]		1.56
c1ccc(Nc2cccc(Nc3ccccc3)n2)cc1 [N,N'-diphenyl-2,6-pyridinediamine]		2.58
Cc1cc(N)ccc1N1CCCC1 [3-methyl-4-(1-pyrrolidinyl)aniline;hydrochloride]		3.96
CCC(/C=C1\Sc2ccc(OC)cc2N1CCO)=C\c1sc2ccc(OC)cc2[n+]1CCO		22.1
c1ccc(-c2nc(N3CCCCCC3)c3ccccc3n2)nc1 [SMR000046752]	21.7	
O=c1[nH]c2ccc(N=Cc3c(O)ccc4cc(Br)ccc34)cc2[nH]1 [SMR000171789]		4.15

SMILES	EC50 [1] [µM]	EC50 [µM]
Cc1ccc(/C=C/C(=O)c2ccccc(=O)c2O)cc1C [MLS000756172]	27.9	
Nc1c(C(=O)NC2CC2)sc2nc3c(c(-c4ccco4)c12)CC/C3=C/c1ccco1 [SMR000259554]		2.6
COc1cc(/C=C2\CC/C(=C\c3cc(OC)c(O)c(OC)c3)C2=O)cc(OC)c1O [(2E,5E)-2,5-bis[(4-hydroxy-3,5-dimethoxyphenyl)methylidene]cyclopentan-1-one]		3.31
O=C(NCc1ccccn1)c1ccc2nc(-c3ccco3)c(-c3ccco3)nc2c1 [2,3-di-2-furyl-N-(pyridin-2-ylmethyl)quinoxaline-6-carboxamide]		7.22
Cc1cc(-c2nnc3n2N=C(c2ccc(-c4ccccc4)cc2)CS3)[nH]n1 [MLS000082991]	7.58	
COc1cc2nc(=S)[nH]c(NCCCOC(C)C)c2cc1OC	9	
COc1ccc(OC)c(-n2c(=O)c3ccccc3c3ccccc3c2=O)c1 [SMR000236434]	18	
O=C(/C=C/c1ccccc1Cl)c1ccccc(=O)c1O [3-[(E)-3-(2-chlorophenyl)prop-2-enoyl]-2-oxidanyl-cyclohepta-2,4,6-trien-1-one]	11.8	
CCOc1ccccc1CNc1ccc(O)cc1	2.31	
CCN1/C(=C/C(C)=C/c2sc3ccccc3[n+]2CC)Sc2ccccc21 [SMR000354813]		37.5
COc1cc(CNc2ccc(N3CCCC3)cc2)cc(Cl)c1OC [N-[(3-chloranyl-4,5-dimethoxy-phenyl)methyl]-4-pyrrolidin-1-yl-aniline]	3.72	
COCCNc1[nH]c(=S)nc2cc(OC)c(OC)cc12	3.86	
CN(N=C/C=C/c1ccccc1)C1=NS(=O)(=O)c2ccccc21 [(1E,2E)-3-phenylacrylaldehyde (1,1-dioxido-1,2-benzisothiazol-3-yl)(methyl)hydrazone]	3.67	
Nc1c(C(=O)NCC2CCCO2)sc2nc3c(c(-c4ccco4)c12)CC/C3=C\c1ccco1 (stereo not drawn) [SMR000259502]		2.36
O=C(/C=C\c1ccc(-c2ccccc2)o1)c1ccccc1 [(Z)-1-phenyl-3-(5-phenyl-2-furanyl)-2-propen-1-one]	10.6	
Cc1cc(C)nc(SCc2cc(=O)c(OC(=O)c3ccc(Cl)c([N+](=O)[O-])c3)co2)n1 [4-chloro-3-nitrobenzoic acid [6-[[(4,6-dimethyl-2-pyrimidinyl)thio]methyl]-4-oxo-3-pyranyl] ester]	6.18	

Now from value to compound:

EC50 [1] [µM]	EC50 [µM]	SMILES
4.34		Cc1ccc(NC2=C(NC(=O)c3ccccc3)C(=O)c3ccccc3C2=O)cc1Cl [MLS000392290]
	0.92	CCC(=O)N(CC)C1C(=O)C(=O)c2ccccc2C1=O (stereo not drawn) [N-ethyl-N-(1-hydroxy-3,4-dioxo-2-naphthalenyl)propanamide]
0.04		CN1CCN(C2=C(Cl)C(=O)C(c3cnc(N4CCCCC4)s3)=C(Cl)C2=O)CC1
6.62		c1coc(C2=Nc3cccc4cccc(c34)N2)c1 [2-(2-furanyl)-1H-perimidine]
4.24		COc1ccc(C2=Nn3c(nnc3-c3ccco3)SC2)cc1OC [6-(3,4-Dimethoxy-phenyl)-3-furan-2-yl-7H-[1,2,4]triazolo[3,4-b][1,3,4]thiadiazine]
16.6		Cc1ccc(C=NN(C)C2=NS(=O)(=O)c3ccccc32)o1 [N-methyl-N-[(5-methyl-2-furanyl)methylideneamino]-1,1-dioxo-1,2-benzothiazol-3-amine]
2.26		CC1N(C)c2cccc3cccc(c23)N1C [1,2,3-trimethyl-2,3-dihydro-1H-perimidine]
12		CCN(CC)c1ccc(-c2nn3c(-c4cccnc4)nnc3s2)cc1
	1.11	O=C1c2ccccc2-c2onc3ccc(NCCCn4ccnc4)c1c23 [SMR000044769]
89		Cc1ccc(-c2ccc(/C=C3\SC(N4CCOCC4)=NC3=O)o2)cc1 [(5Z)-5-[[5-(4-methylphenyl)-2-furanyl]methylidene]-2-(4-morpholinyl)-4-thiazolone]
	4.03	CC(=NNC(=O)c1cc(O)c(O)c(O)c1)c1ccc([N+](=O)[O-])cc1 [SMR000312589]
	2.43	COc1cccc(CN=Nc2nn3cnnc3c3ccccc23)c1 [N-[1-(3-Methoxy-phenyl)-meth-(E)-ylidene]-N'-[1,2,4]triazolo[3,4-a]phthalazin-6-yl-hydrazine]
4		COc1ccccc1NC1=C(NC(C)=O)C(=O)c2ccccc2C1=O [N-[3-(2-methoxyanilino)-1,4-dioxonaphthalen-2-yl]acetamide]
6.14		CCOC(=O)c1c(O)nc2ccc(Cl)c3c2c1-c1ccccc1C3=O [MLS000704595]
0.05		CN(C)c1ncc(C2=C(Cl)C(=O)C(N3CCCC3)=C(Cl)C2=O)s1
16.3		COc1ccc(-n2c(=O)c3ccccc3c3ccccc3c2=O)c(OC)c1
